{"source": "patent US12590108B2", "about": "“Boracic acid compound” (Phaeno Therapeutics Co., Ltd, priority 2020, dated 2026)", "key": {"[1]": {"tested_on": "Klebsiella pneumoniae ATCC BAA-1705", "assay": "Mouse thigh muscle infection model, bacterial load", "type": "in vivo, CD-1 female mice", "details": "endpoint 12 h", "experimental": "(§1) 36 CD-1 female mice were divided into 12 cages with 3 […] in each cage. The day of infection was denoted as day 0.\n(§2) Immunosuppressant cyclophosphamide at 150 mg/kg was injected intraperitoneally on day −4 and immunosuppressant cyclophosphamide at 100 mg/kg was injected intraperitoneally on day −1 to induce immunodeficient mice.\nOn day −1, the strain Klebsiella pneumoniae ATCC BAA-1705 was resuscitated on an MHA plate. Resuscitated colonies were picked and dissolved in sterile physiological saline to prepare a bacterial solution with a concentration of 5.6E+07 CFU/mL for thigh muscle infection in mice. The initial time of infection was denoted as 0 h, and 100 μL of the bacterial solution was injected into each mouse at the thigh muscle at 0 h, that is, the inoculation amount was 5.6E+06 CFU/mouse. 2 h after infection, dosing was performed according to the experimental scheme. The specific experimental scheme was as follows (see Table 4): • (1) 2 h after infection: for the 1st cage of mice, at the endpoint, thigh muscle tissue was taken and placed in 10 mL of sterile physiological saline, the tissue was homogenized by a homogenizer, and the homogenate was diluted in a gradient and spotted in a plate, with two replicates for each mouse. • (2) 2 h after infection: the 2nd to 12th cages were respectively treated at 10 mL/kg by volume according to the body weight of the mice, the 2nd cage of mice were given a vehicle by intravenous injection every 2 h, and the endpoint was 12 h; the 3rd cage of mice were given 100 mg/kg of meropenem by intravenous injection every 2 h, and the endpoint was 12 h; the 4th cage of mice were given 100 mg/kg of meropenem and 20 mg/kg of QPX7728 by intravenous injection every 2 h, and the endpoint was 12 h; the 5th cage of mice were given 100 mg/kg of meropenem and 100 mg/kg of compound 15 by intravenous injection every 2 h, and the endpoint was 12 h; the 6th cage of mice were given 100 mg/kg of meropenem and 20 mg/kg of compound 15 by intravenous injection every 2 h, and the endpoint was 12 h; the 7th cage of mice were given 100 mg/kg of meropenem and 4 mg/kg of compound 15 by intravenous injection every 2 h, and the endpoint was 12 h; the 8th cage of mice were given 100 mg/kg of cefepime by intravenous injection every 2 h, and the endpoint was 12 h; the 9th cage of mice were given 100 mg/kg of cefepime and 20 mg/kg of QPX7728 by intravenous injection every 2 h, and the endpoint was 12 h; the 10th cage of mice were given 100 mg/kg of cefepime and 100 mg/kg of compound 15 by intravenous injection every 2 h, and the endpoint was 12 h; the 11th cage of mice were given 100 mg/kg of cefepime and 20 mg/kg of compound 15 by intravenous injection every 2 h, and the endpoint was 12 h; and the 12th cage of mice were given 100 mg/kg of cefepime and 4 mg/kg of compound 15 by intravenous injection every 2 h, and the endpoint was 12 h. At the endpoint of 12 h, thigh muscle tissue was taken and placed in 10 mL of sterile physiological saline, the tissue was homogenized by a homogenizer, and the homogenate was diluted in a gradient and spotted in a plate, with two replicates for each mouse. The bacterial load in the thigh muscle tissue of the mice was counted, and the experiment was summarized as follows (see Table 5): […]"}, "[2]": {"tested_on": "Klebsiella pneumoniae ATCC BAA-1705", "assay": "Mouse lung infection model, bacterial load", "type": "in vivo, CD-1 female mice", "details": "endpoint 12 h", "experimental": "as §1, §2\nOn day −1, the strain Klebsiella pneumoniae ATCC BAA-1705 was resuscitated on an MHA plate. Resuscitated colonies were picked and dissolved in sterile physiological saline to prepare a bacterial solution with a concentration of 2.75E+08 CFU/mL for lung infection by nasal drip. The initial time of infection was denoted as 0 h, and 50 μL of the bacterial solution was injected into each mouse by nasal drip at 0 h, that is, the inoculation amount was 1.38E+07 CFU/mouse. 2 h after infection, dosing was performed according to the experimental scheme. The specific experimental scheme was as follows (see Table 6): • (1) 2 h after infection: for the 1st cage of mice, at the endpoint, lung tissue was taken and placed in 10 mL of sterile physiological saline, the tissue was homogenized by a homogenizer, and the homogenate was diluted in a gradient and spotted in a plate, with two replicates for each mouse. • (2) 2 h after infection: the 2nd to 12th cages were respectively treated at 10 mL/kg by volume according to the body weight of the mice, the 2nd cage of mice were given a vehicle by intravenous injection every 2 h, and the endpoint was 12 h; the 3rd cage of mice were given 100 mg/kg of meropenem by intravenous injection every 2 h, and the endpoint was 12 h; the 4th cage of mice were given 100 mg/kg of meropenem and 20 mg/kg of QPX7728 by intravenous injection every 2 h, and the endpoint was 12 h; the 5th cage of mice were given 100 mg/kg of meropenem and 100 mg/kg of compound 15 by intravenous injection every 2 h, and the endpoint was 12 h; the 6th cage of mice were given 100 mg/kg of meropenem and 20 mg/kg of compound 15 by intravenous injection every 2 h, and the endpoint was 12 h; the 7th cage of mice were given 100 mg/kg of meropenem and 4 mg/kg of compound 15 by intravenous injection every 2 h, and the endpoint was 12 h; the 8th cage of mice were given 100 mg/kg of cefepime by intravenous injection every 2 h, and the endpoint was 12 h; the 9th cage of mice were given 100 mg/kg of cefepime and 20 mg/kg of QPX7728 by intravenous injection every 2 h, and the endpoint was 12 h; the 10th cage of mice were given 100 mg/kg of cefepime and 100 mg/kg of compound 15 by intravenous injection every 2 h, and the endpoint was 12 h: the 11th cage of mice were given 100 mg/kg of cefepime and 20 mg/kg of compound 15 by intravenous injection every 2 h, and the endpoint was 12 h; and the 12th cage of mice were given 100 mg/kg of cefepime and 4 mg/kg of compound 15 by intravenous injection every 2 h, and the endpoint was 12 h. At the endpoint, lung tissue was taken and placed in 10 mL of sterile physiological saline, the tissue was homogenized by a homogenizer, and the homogenate was diluted in a gradient and spotted in a plate, with two replicates for each mouse. The bacterial load in the lung tissue of the mice was counted, and the experiment was summarized as follows (see Table 7): […]"}, "[3]": {"details": "cefepime 100 mg/kg + inhibitor 20 mg/kg i.v. q2h"}, "[4]": {"details": "meropenem 100 mg/kg + inhibitor 20 mg/kg i.v. q2h"}}, "data": [{"molecule": "O=C(O)c1c(F)ccc2c1OB(O)[C@@H]1C[C@H]21", "note": "[QPX7728, reference compound]", "values": [{"measurement": "Average CFU in mice (thigh muscle tissue)", "setting": "[1]; [3]", "result": "1.50E+07", "unit": "CFU/mouse"}, {"measurement": "Average CFU in mice (thigh muscle tissue)", "setting": "[1]; [4]", "result": "1.02E+07", "unit": "CFU/mouse"}, {"measurement": "Average CFU in mice (lung tissue)", "setting": "[2]; [3]", "result": "2.68E+06", "unit": "CFU/mouse"}, {"measurement": "Average CFU in mice (lung tissue)", "setting": "[2]; [4]", "result": "8.42E+06", "unit": "CFU/mouse"}]}]}
